Test results from patent US20250177502A1, “THROMBIN AND FIBRINOGEN AS TARGETS FOR ATOPIC DERMATITIS DIAGNOSIS AND TREATMENT” (Children's Hospital Medical Center, priority 2022, published 2025).

Experiments:
[1] = Absorption of topically applied bivalirudin: prothrombin time on homogenized ex vivo mouse skin samples; type: in vitro ADME; details: reconstituted bivalirudin 50 mg/mL applied to ex vivo mouse skin for 0, 5 or 15 minutes, then washed
Method: Reconstituted bivalirudin was applied to ex vivo mouse skin samples for 0, 5, or 15 minutes then repeatedly washed, the samples were homogenized, and finally a prothrombin time was run on the homogenized skin samples. […] FIG. 10 illustrates absorption of topically applied bivalirudin by measuring prothrombin time.

[2] = Bivalirudin solubility and precipitation in aqueous solutions; type: physicochemical
Method: Direct thrombin inhibitor bivalirudin was formulated in a lyophilized formulation containing 50 mg/mL of bivalirudin, 25 mg/mL of mannitol, and NaOH for pH adjustment to 5-6. […] The lyophilized bivalirudin was reconstituted with 5 mL water to a concentration of 50 mg/mL.

CC[C@H](C)[C@H](NC(=O)[C@H](CCC(=O)O)NC(=O)[C@H](CCC(=O)O)NC(=O)[C@H](Cc1ccccc1)NC(=O)[C@H](CC(=O)O)NC(=O)CNC(=O)[C@H](CC(N)=O)NC(=O)CNC(=O)CNC(=O)CNC(=O)CNC(=O)[C@@H]1CCCN1C(=O)[C@H](CCCNC(=N)N)NC(=O)[C@@H]1CCCN1C(=O)[C@H](N)Cc1ccccc1)C(=O)N1CCC[C@H]1C(=O)N[C@@H](CCC(=O)O)C(=O)N[C@@H](CCC(=O)O)C(=O)N[C@@H](Cc1ccc(O)cc1)C(=O)N[C@@H](CC(C)C)C(=O)O [bivalirudin]
absorption by skin and retained function (prothrombin time of homogenized skin) [1]: is absorbed and retains function
solubility: influence of pH [2]: influenced by pH
solubility: influence of temperature and addition of mannitol [2]: not affected
